For one assay, the target named is D(3) dopamine receptor (Homo sapiens, UniProt P35462). Description: biochemical. The assay is classed as cell-based, HEK293.
The target of a further assay is D(2) dopamine receptor (Homo sapiens, UniProt P14416). Description: biochemical. It is filed as cell-based, HEK293.
In a further assay the target is T1, D(4) dopamine receptor (Homo sapiens, UniProt P21917).
T1 sequence (P21917 whole entry): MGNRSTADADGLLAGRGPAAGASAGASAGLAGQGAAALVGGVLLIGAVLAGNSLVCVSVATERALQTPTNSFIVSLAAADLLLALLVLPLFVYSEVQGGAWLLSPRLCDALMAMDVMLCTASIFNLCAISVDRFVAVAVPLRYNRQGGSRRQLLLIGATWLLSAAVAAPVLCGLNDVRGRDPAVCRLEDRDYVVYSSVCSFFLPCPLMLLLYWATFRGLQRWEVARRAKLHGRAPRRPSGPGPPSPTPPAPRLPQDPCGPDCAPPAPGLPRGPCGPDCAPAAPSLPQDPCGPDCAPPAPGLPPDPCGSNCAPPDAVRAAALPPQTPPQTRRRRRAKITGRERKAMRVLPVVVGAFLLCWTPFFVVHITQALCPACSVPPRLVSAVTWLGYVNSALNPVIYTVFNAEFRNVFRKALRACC
In words: Displacement of [125I]-IABN from human D4 receptor expressed in HEK293 cell membranes after 60 mins by filtration binding assay.

Assay [1] has as its target T2, 5-hydroxytryptamine receptor 1A (Homo sapiens, UniProt P08908).
T2 sequence (P08908 whole entry): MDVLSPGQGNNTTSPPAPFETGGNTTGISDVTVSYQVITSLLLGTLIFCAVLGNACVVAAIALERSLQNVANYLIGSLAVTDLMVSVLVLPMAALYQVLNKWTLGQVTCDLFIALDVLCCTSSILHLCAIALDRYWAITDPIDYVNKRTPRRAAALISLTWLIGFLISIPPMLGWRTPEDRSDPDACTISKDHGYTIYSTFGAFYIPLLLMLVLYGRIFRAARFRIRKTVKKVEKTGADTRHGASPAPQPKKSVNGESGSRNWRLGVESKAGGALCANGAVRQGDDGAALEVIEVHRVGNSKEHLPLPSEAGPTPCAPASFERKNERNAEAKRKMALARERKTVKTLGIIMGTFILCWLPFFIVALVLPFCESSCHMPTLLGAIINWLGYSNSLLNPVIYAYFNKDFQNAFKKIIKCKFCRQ
Description: Displacement of [3H]8-OH-DPAT from human 5HT1A receptor after 60 mins by filtration binding assay. Background: Displacement assays read how much labelled ligand stays bound in the presence of the test substance.

A further assay is filed under the species Homo sapiens. Description: Selectivity index, ratio of Ki for D4 receptor to Ki for human D3 receptor.

pKi: −log10 of the molar value.

Sequence of D(2) dopamine receptor (P14416 whole entry): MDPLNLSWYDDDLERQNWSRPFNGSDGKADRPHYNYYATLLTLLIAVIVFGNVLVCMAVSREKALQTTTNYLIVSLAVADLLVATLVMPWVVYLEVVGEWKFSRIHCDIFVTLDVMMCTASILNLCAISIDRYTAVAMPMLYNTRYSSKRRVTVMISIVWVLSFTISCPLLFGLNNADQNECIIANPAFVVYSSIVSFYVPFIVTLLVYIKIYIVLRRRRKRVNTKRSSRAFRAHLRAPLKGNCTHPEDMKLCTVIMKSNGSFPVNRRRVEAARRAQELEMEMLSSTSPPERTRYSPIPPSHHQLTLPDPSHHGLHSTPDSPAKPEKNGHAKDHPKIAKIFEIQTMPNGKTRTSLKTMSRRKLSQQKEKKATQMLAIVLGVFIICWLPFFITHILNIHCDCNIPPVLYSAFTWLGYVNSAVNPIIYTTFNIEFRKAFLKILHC
Sequence of D(3) dopamine receptor (P35462 whole entry): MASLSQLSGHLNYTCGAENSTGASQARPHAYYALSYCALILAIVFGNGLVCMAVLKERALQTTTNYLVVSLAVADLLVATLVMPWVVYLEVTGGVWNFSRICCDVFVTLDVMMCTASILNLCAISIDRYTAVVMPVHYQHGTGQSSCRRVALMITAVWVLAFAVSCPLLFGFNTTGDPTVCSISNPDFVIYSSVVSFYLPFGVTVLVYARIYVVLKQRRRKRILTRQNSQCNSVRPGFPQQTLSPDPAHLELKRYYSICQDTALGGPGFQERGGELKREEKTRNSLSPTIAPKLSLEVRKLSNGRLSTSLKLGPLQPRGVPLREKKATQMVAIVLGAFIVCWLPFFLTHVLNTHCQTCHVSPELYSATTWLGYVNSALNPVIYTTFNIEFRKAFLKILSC

As a reminder, the pKi is the Ki on a negative log10 scale, so that one unit is a factor of ten. Read a low pKi as a high Ki. As for `COc1ccccc1N1CCN(CCCCCc2cn(-c3ccc(F)cc3)nn2)CC1`, the pKi at D(3) dopamine receptor is 8.49; on D(2) dopamine receptor it was 7.63.
For `COc1ccccc1N1CCN(CCCc2cn(-c3ccccc3)nn2)CC1` the same measures were 7.65 and 7.19.
As to `COc1ccccc1N1CCN(CCCc2cn(-c3ccc(-c4ccsc4)cc3)nn2)CC1`, the pKi at D(4) dopamine receptor is 7.05; in assay [1] it was 8.13; on D(3) dopamine receptor, 8.05; at D(2) dopamine receptor, 6.80. In addition, in the assay listed under Homo sapiens, the Ratio Ki came out at 10.
Consider `COc1ccccc1N1CCN(CCCc2cn(-c3ccc(N(C)C)cc3)nn2)CC1`, for which the pKi at D(3) dopamine receptor is 7.53; at D(2) dopamine receptor, 6.79.
For `COc1ccccc1N1CCN(CCCc2cn(-c3ccccc3O)nn2)CC1` the same measures were 8.17 and 7.89.
As to `COc1ccccc1N1CCN(CCCCc2cn(-c3ccc(-c4ccsc4)cc3)nn2)CC1`, the pKi at D(4) dopamine receptor was 6.40; in assay [1], 8.89; at D(3) dopamine receptor, 8.09; on D(2) dopamine receptor, 7.03. Moreover, the Ratio Ki in the assay listed under Homo sapiens is 48.
Regarding `COc1ccccc1N1CCN(CCCCc2cn(-c3ccc(F)cc3)nn2)CC1`, the figures for the pKi on D(3) dopamine receptor and at D(2) dopamine receptor were 8.19 and 7.33, respectively.
For the compound `COc1ccccc1N1CCN(CCCCc2cn(-c3ccccc3O)nn2)CC1`, the pKi is 8.54 at D(3) dopamine receptor and 8.03 on D(2) dopamine receptor.
As for `COc1ccccc1N1CCN(CCCCCc2cn(-c3ccc(SC)cc3)nn2)CC1`, the pKi at D(4) dopamine receptor was 6.64; in assay [1], 8.41; at D(3) dopamine receptor, 8.64; at D(2) dopamine receptor, 7.58. Besides, in the assay filed under Homo sapiens, the Ratio Ki was 99.
`COc1ccccc1N1CCN(CCCc2cn(-c3ccccc3OC)nn2)CC1`: the pKi on D(3) dopamine receptor is 7.03; on D(2) dopamine receptor, 6.57.
As to `COc1ccccc1N1CCN(CCCCCc2cn(-c3ccc(-c4ccsc4)cc3)nn2)CC1`, the pKi was 6.79 on D(4) dopamine receptor, 6.82 in assay [1], 8.20 on D(3) dopamine receptor and 6.96 on D(2) dopamine receptor. The Ratio Ki in the assay listed under Homo sapiens came to 26.
With `COc1ccccc1N1CCN(CCCCNC(=O)c2ccc(N(C)C)cc2)CC1`, the negative logarithm of the Ki (pKi) in assay [1] is 8.12. Further, in the assay filed under Homo sapiens, the Ratio Ki turned out to be 1120.
Turning to `COc1ccccc1N1CCN(CCCCCc2cn(-c3ccccc3OC)nn2)CC1`, the figures for the pKi at D(3) dopamine receptor and at D(2) dopamine receptor were 7.68 and 7.20, respectively.
Consider `COc1ccccc1N1CCN(CCCCCc2cn(-c3cccc4cnccc34)nn2)CC1`, for which the pKi was 6.73 on D(4) dopamine receptor, 8.24 in assay [1], 8.74 at D(3) dopamine receptor and 7.75 on D(2) dopamine receptor. In addition, in the assay filed under Homo sapiens, the Ratio Ki amounted to 103.
Consider `COc1ccccc1N1CCN(CCCc2cn(-c3ccc(SC)cc3)nn2)CC1`, for which the pKi at D(3) dopamine receptor is 8.02; on D(2) dopamine receptor, 7.36.
For `COc1ccccc1N1CCN(CCCCc2cn(-c3cccc4cnccc34)nn2)CC1`, the pKi at D(4) dopamine receptor was 6.06; in assay [1], 8.22; on D(3) dopamine receptor, 8.43; on D(2) dopamine receptor, 7.37. For the same compound, the Ratio Ki in the assay filed under Homo sapiens was found to be 237.
For `COc1ccccc1N1CCN(CCCCc2cn(-c3ccc(SC)cc3)nn2)CC1` the same measures were 6.70, 8.28, 8.68, 7.42 and 95.
Take `COc1ccccc1N1CCN(CCCCc2cn(-c3ccccc3)nn2)CC1`: the negative logarithm of the Ki (pKi) at D(3) dopamine receptor is 8.33; at D(2) dopamine receptor, 7.51.
For `COc1ccccc1N1CCN(CCCCCc2cn(-c3ccc(N(C)C)cc3)nn2)CC1` the same measures were 8.17 and 7.20.
For the compound `COc1ccccc1N1CCN(CCCCc2cn(-c3ccc(N(C)C)cc3)nn2)CC1`, the pKi is 6.12 on D(4) dopamine receptor, 8.03 in assay [1], 7.86 on D(3) dopamine receptor and 6.77 at D(2) dopamine receptor. In the assay listed under Homo sapiens, the Ratio Ki was 55.
Turning to `COc1ccccc1N1CCN(CCCCc2cn(-c3ccccc3OC)nn2)CC1`, the results for the pKi at D(3) dopamine receptor and at D(2) dopamine receptor were 7.60 and 6.86, respectively.
For `COc1ccccc1N1CCN(CCCc2cn(-c3cccc4cnccc34)nn2)CC1`, in that order: 7.44 and 7.10.
Turning to `COc1ccccc1N1CCN(CCCCCc2cn(-c3ccccc3)nn2)CC1`, the pKi was 8.51 at D(3) dopamine receptor and 7.71 at D(2) dopamine receptor.
Take `COc1ccccc1N1CCN(CCCc2cn(-c3ccc(F)cc3)nn2)CC1`: the pKi on D(3) dopamine receptor is 7.58; at D(2) dopamine receptor, 7.13.

The values are drawn from ChEMBL document CHEMBL3352598, “Synthesis, pharmacological evaluation and molecular modeling studies of triazole containing dopamine D3 receptor ligands” (Bioorg Med Chem Lett, 2015).
